Assay results reported in patent publication US20130177627A1, “Growth inhibitory effects of nanoparticles containing triterpene glycosides or triterpenes” (priority 2011, published 2013).
pIC50: −log10 of the molar value. Converted amounts (≈) assume the structure as drawn. “And” between values parts separate entries of the source, which are not always exact repeats. Identical values can stand only once. “Also recorded” adds a separate entry of the source. Like-named read-outs stand apart in the source and are kept apart here.

What was measured:
[1] = system: rat liver; test: Gene expression in rat liver after actein; type: in vivo; settings: gene expression analysis
[2] = system: IKKβ protein; test: Western blot analysis of IKKβ; type: cell-based; settings: 3 h, FIG. 10C
Experimental: Cells were treated for increasing times, in media containing serum, with approximately the IC50 and twice the IC50 concentration, measured at 48 h, of actein. Western blot analysis was performed as previously described (Einbond et al., 2004). The membrane was incubated with the primary antibody IKKβ (Santa Cruz Biotechnology; Santa Cruz, Calif.); β-actin was used as a loading control.

[3] = system: MCF7 human breast cancer cells; test: MTT growth inhibition assay on MCF7 cells; type: cell-based
[4] = system: rat liver; settings: cited from earlier work
[5] = system: breast cancer cell growth; settings: Einbond et al., 2008; cited from earlier work
[6] = system: Na+/K+-ATPase; settings: Einbond et al., 2008, cited from earlier work
[7] = system: MCF7 cells; test: Calcium release, cells preloaded with Fura-2, MCF7; type: cell-based, human
Experimental: (§1) Methods: To reveal signaling pathways, human breast and colon cancer, as well as 293T(NK-kB), cells were treated with actein, alone or combined with specific inhibitors. Effects were measured using the MTT, luciferase, promoter and Western blot assays and histology. To assess effects on calcium release, cells were preloaded with the calcium sensitive dye Fura-2. To enhance bioavailability, actein was conjugated to nanoparticle liposomes.
(§2) To elucidate the primary targets of actein, the effect of actein on calcium release was assessed. Cells were preloaded with the calcium sensitive dye Fura-2, which binds to calcium ions inside the cell. […] The effect was dose dependent in that it was stronger at 10 μM than at 10 nM in MCF7 breast cancer cells (FIG. 7A, B). […] The increase in calcium level was more sustained at the higher dose of actein (10 μM)) versus 10 nM and it continued longer for MDA-MB-453 than for MCF7 breast cancer cells (FIG. 7C).

[8] = system: HT29 cells; test: Calcium release, cells preloaded with Fura-2, HT29; type: cell-based, human
Experimental: as §1, §2

[9] = system: 293T(NF-κB) stably transformed cells; test: MTT growth inhibition assay on 293T(NF-κB) cells; type: cell-based; settings: Homo sapiens, HEK-293T, 96 h MTT, FIG. 10B
[10] = system: MDA-MB-453 human breast cancer cells; test: MTT growth inhibition assay and combination index on MDA-MB-453 cells
Experimental: MTT assay: the MTT (3-(4,5-dimethyl-2-thiazol)-2,5-diphenyl-2H tetrazolilum bromide) cell proliferation assay system (Roche Diagnostic, Mannheim, Germany) was used to determine the sensitivity of the various cell lines to agents. Cells were seeded at 1×10^4 cells/well in 96-well plates and allowed to attach for 24 h. The medium was replaced with fresh medium containing DMSO or compound. The cells were treated for 96 or 120 h, after which they were incubated with MTT reagents and the absorbance read at 650 and 575 nm.
The results of the MTT assay were analyzed for possible synergistic effects using the median effect principle.

[11] = system: 293T(null) cells; test: MTT growth inhibition assay on 293T(null) cells; type: cell-based; settings: Homo sapiens, HEK-293T, 96 h MTT, FIG. 10B
[12] = system: MDA-MB-453 breast cancer cells; test: Gene expression analysis in MDA-MB-453 cells; type: cell-based, human; settings: actein 20 μg/ml
Experimental: Gene expression analysis was performed as previously described in vitro (Einbond et al., 2007)
AffyLimma analysis: To identify individual alterations in gene expression induced by treatment, an unbiased informatics analysis was performed using the AffyLimmaGUI package in the open-source Bioconductor suite, as previously described [Einbond et al., 2007.]

[13] = system: MDA-MB-453 cells; test: Calcium release, cells preloaded with Fura-2, MDA-MB-453; type: cell-based, human; settings: MDA-MB-453, FIG. 7C
Experimental: as §1, §2

[14] = system: NFκB transcription factor; test: NF-kB luciferase assay in 293T cells; type: cell-based; settings: 293T(NF-κB) cells
Experimental: A luciferase reporter construct is integrated in 293T cells and is regulated by 6 copies of the NFκB response element. The assay to monitor the activity of NFκB transcription factor was performed as described in the manufacturer's instructions (Panomics, Freemont, Calif.).

[15] = system: HT29 human colon cancer cells; test: MTT growth inhibition assay on HT29 cells; type: cell-based
[16] = system: NF-kB promoter activity, p-Erk, p-Akt, cyclin D1; settings: later times (24 h), Einbond et al., 2008; cited from earlier work
[17] = Homo sapiens, MDA-MB-453, read-out: IC50, agent alone

Which “expression of the inflammatory gene CXCR4 in rat liver tissue” value [1] does the source give for `CC(=O)O[C@@H]1C[C@@]23C[C@@]24CC[C@H](O[C@@H]2OC[C@@H](O)[C@H](O)[C@H]2O)C(C)(C)[C@@H]4CC[C@H]3[C@]2(C)C[C@@H]3O[C@]4(C[C@@H](C)[C@@H]3[C@@]12C)O[C@H](O)[C@@]1(C)O[C@@H]41` [actein] here?
Its value is “reduced the expression”.

And the “level of IKKβ protein” value [2]?
The value was “decreased the level of IKKβ protein in a dose dependent manner”.

What about the pIC50 ([3]; MCF7, 96 h, read-out: IC50, concentration that caused 50% inhibition of cell growth) of the same compound?
Its pIC50 is about 4.52.

And the viability at 5 µg/mL ([3]; MCF7, actein 5 μg/ml alone or plus U0126 10 μM, read-out: percent viable cells)?
Its viability at 5 µg/mL is 79.2%.

And the IC50 ([3]; MCF7, actein alone or combined with MEK inhibitor U0126, FIG. 6B, read-out: IC50, growth inhibition)?
The IC50 was 20 µg/mL.

What about the “genes erythropoietin, CYP2C and ATP synthase in rat liver” value ([4]; actein 35.7 mg/kg for 6 h, rat liver (Einbond et al., 2009)) of the same compound?
The value was “downregulated”.

And the “responses elicited in rat liver in vivo” value ([4]; rat liver)?
The value was “elicited stress and statin-associated responses”.

And the “combination with digitoxin on breast cancer cell growth” value [5]?
The value was “synergized with digitoxin”.

And the “activity of the purified Na-K ATPase” value [6]; 2007?
Its value is “inhibits the activity of the purified Na+/K+-ATPase; also recorded: inhibited the activity of the purified Na-K ATPase”.

And the “combination with digitoxin on Na/K ATPase activity” value [6]?
The value was “synergized with digitoxin”.

And the “calcium release (action potential, Fura-2)” value ([7]; MCF7, actein 10 nM and 10 μM, FIG. 7A, B)?
The value was “induced an increase in action potential indicating calcium release”.

And the “intracellular calcium (ion concentration) levels” value ([7]; MCF7, actein 100 nM or 100 μM, FIG. 4)?
Its value is “significantly increases intracellular calcium”.

And the “time course of the calcium effect” value ([7]; MCF7 breast cancer cells)?
The value was “immediate and transient”.

And the “calcium release (action potential, Fura-2)” value [8]?
The value was “induced an increase in action potential indicating calcium release”.

And the IC50 [9]?
Its IC50 is 38 µg/mL (≈ 56.1 µM).

And the IC50 ([10]; Homo sapiens, MDA-MB-453, 96 h, read-out: IC50, concentration that caused 50% inhibition of cell growth)?
Its IC50 is ~8 µg/mL and ~12 µM.

What about the IC50 [10, 17] of the same compound?
Its IC50 is 25 µg/mL.

And the IC50 ([10]; Homo sapiens, MDA-MB-453, read-out: IC50, growth inhibition)?
The IC50 was 23 µg/mL.

And the “ability of actein to potentiate the effects of thapsigargin” value ([10]; MDA-MB-453, FIG. 8A, B)?
Its value is “enhanced the effects of thapsigargin”.

And the IC50 [11]?
The IC50 was 75 µg/mL (≈ 111 µM).

What about the “expression of the inflammatory pathway, cytokine-cytokine interaction” value ([12]; 6 h, up EPOR, down CXCR4, TRAF5, IL17RB) of the same compound?
The value was “significantly modulated”.

What about the “expression of the MAPK signaling pathway” value ([12]; gene (up) HSPA1A) of the same compound?
Its value is “significantly altered”.

What about the “calcium release (action potential, Fura-2)” value [13] of the same compound?
The value was “induced an increase in action potential indicating calcium release”.

And the “effect on 293T cells stably transformed with the NF-κB plasmid (FIG. 10A NF-kB activity)” value [14]?
Its value is “did not increase cell proliferation”.

And the IC50 ([15]; Homo sapiens, HT-29, 96 h, read-out: IC50, concentration that caused 50% inhibition of cell growth)?
Its IC50 is ~24 µg/mL and ~35 µM.

And the viability at 10 µg/mL ([15]; Homo sapiens, HT-29, HT29, actein 10 μg/ml alone or plus U0126 10 μM, read-out: percent viable cells)?
Its viability at 10 µg/mL is 79.1%.

What about the IC50 ([15]; Homo sapiens, HT-29, HT29, actein alone or combined with MEK inhibitor U0126, FIG. 6C, read-out: IC50, growth inhibition) of the same compound?
The IC50 was 30 µg/mL.

And the “level of NF-kB promoter activity, p-Erk, p-Akt and cyclin D1 protein” value [16]?
Its value is “reduced”.

What does the source list for `C/C=C(/C)C(=O)O[C@H]1C(C)=C2[C@H]([C@@H]1OC(=O)CCCCCCC)[C@@](C)(OC(C)=O)C[C@H](OC(=O)CCC)[C@@]1(O)[C@H]2OC(=O)[C@@]1(C)O` [thapsigargin, reference compound]?
IC50 [10, 17]: 0.018 µg/mL; viability at 0.01 µg/mL ([10]; Homo sapiens, MDA-MB-453, read-out: percent viable cells): 76.3%

For heparin [reference compound], which “effect of heparin on actein-induced calcium release” value [13] is on record?
The value was “completely blocked”.

What about the “effect of heparin on the growth inhibitory effects of actein” value ([15]; HT29 colon cancer cells) of the same compound?
Its value is “partially blocked”.
